Here are results for 2 compounds from US8951789B2, “Mammalian artificial chromosome vector comprising human cytochrome P450 gene (cluster) and non-human mammalian animal retaining the same” (National University Corporation Tottori University, priority 2007, dated 2015).

For series [1], the system named is CYP3A/Cyp3a. The experiment in a line: Midazolam metabolites in human liver microsomes by LC-MS/MS. As to conditions: 10 μM midazolam, 37° C. 30 minutes. The method, then:
(§1) In order to investigate whether or not a human-specific metabolite of midazolam, which is known to be metabolized by CYP3A/Cyp3a, is observed in the TC (CYP3A-HACΔ)/Δcyp mouse as in the case of a human, microsomes derived from the liver of the TC(CYP3A-HACΔ)/Δcyp mouse, the Δcyp mouse, the B6 normal mouse, and the human were allowed to react with midazolam, and mass analysis was carried out via LC-MS/MS in the following manner. […] The reaction was terminated with the addition of acetonitrile, the mixture was centrifuged at 3,000 rpm for 5 minutes, and the supernatant was separated. The solvent was removed therefrom by distillation under a nitrogen stream at 40° C., the dried extract was redissolved in acetonitrile, and mass analysis was carried out by LC-MS/MS
(Liver microsomes are a subcellular fraction often used to study metabolism.)

Series [2] concerns CYP3A/Cyp3a. The experiment in a line: Midazolam metabolites in mouse liver microsomes by LC-MS/MS. As to conditions: 10 μM midazolam. As for the experimental part: as §1
The subject of series [3] is CYP3A4.
In series [4] the test system is CYP3A/Cyp3a expression. Put plainly: Induction of CYP3A/Cyp3a expression by PCN, Western blot of liver microsome fractions. The method, then: In order to investigate the influence of pregnenolone 16α-carbonitrile (PCN) (Sigma), which is known as a substance inducing CYP3A/Cyp3a expression, on CYP3A/Cyp3a gene expression in TC(CYP3A-HACΔ)/Δcyp, Δcyp, and B6 normal mice, PCN was administered intraperitoneally for 4 days in amounts of 100 mg/kg per dose. A suspension of PCN in corn oil (Sigma) was prepared for administration.
A general note: In western blotting, separated proteins are transferred to a membrane and probed.

On to `Cc1ncc2n1-c1ccc(Cl)cc1C(c1ccccc1F)=NC2` [midazolam], for which the “human-specific metabolite (10.22)” value is on record as “detected” in series [1] and “detected” in series [2] (TC(CYP3A-HACΔ)/Δcyp mouse liver microsomes, 37° C. 30 minutes). Also, the “main metabolite (10.62)” value in series [2] (all microsomes (TC(CYP3A-HACΔ)/Δcyp, Δcyp, B6 normal mouse, human)) is recorded as “detected in all microsomes”.
In the case of `CC(=O)[C@H]1[C@H](C#N)C[C@H]2[C@@H]3CC=C4C[C@@H](O)CC[C@]4(C)[C@H]3CC[C@@]21C` [PCN, pregnenolone 16α-carbonitrile], in series [3], the “metabolic activity (triazolam hydroxylation) of liver microsomes, PCN-administered versus corn oil-administered mice” value came to 10 times. Also, the “CYP3A expression level compared with corn oil mice of the same strain” value in series [4] (B6 normal mice, 100 mg/kg intraperitoneally for 4 days, liver on day 5) is “elevated”. Further, in series [4] (mouse, in vivo, ip, 100 mg/kg), the CYP3A expression entry is “not observed” and the “CYP3A expression level compared with corn oil mice of the same strain” value was “elevated”.
